Laboratory results from US20020127605A1 (priority 2000, published 2002).

How the values were obtained:
[1] = tested on: striatal tyrosine hydroxylase-immunoreactive fibres; assay: MPTP-lesioned mouse model of Parkinson's disease, striatal TH fiber density; type: in vivo; details: 10 mg/kg s.c. in Intralipid once daily days 1-5, one hour prior to MPTP; analysis day seven
Excerpt: MPTP (N-methyl-4-phenyl-1,2,3,6-tetrahydropyridine) is a systemically available neurotoxin specific to nigrostriatal dopaminergic neurons, i.e. to the cells that degenerate in human Parkinson's disease. Administration of MPTP to mice leads to a selective partial destruction of the mesotelencephalic dopaminergic projection, and to a loss of dopamine and dopaminergic fibres in the corpus striatum, which is the main forebrain target of midbrain dopaminergic neurons.
Young adult male CD1 albino mice (Harlan—Sprague Dawley; 22-25 g) were dosed i.p. with the dopamine cell-specific neurotoxin N-methyl-4-phenyl-1,2,3,6-tetrahydropyridine (MPTP hydrochloride, calculated as 34 mg/kg free base), dissolved in saline at a concentration of 3.4 mg/ml free base once daily on days one to five. […]
Blinded analysis of TH fiber density in the central striatum was performed at 630× magnification. […] The percentage of sample field covered by TH positive processes and terminals was calculated using an image analysis program (“Simple,” Compix Inc., Pittsburgh, Pa.). The mean striatal innervation density was calculated for each group. The magnitude of striatal deafferentation due to the MPTP lesion was assessed by dividing the observed striatal innervation values obtained in MPTP/vehicle treated cases by the mean striatal innervation density in the Vehicle/Vehicle group and expressed as % loss. […]

human recombinant CyPA = human recombinant CyPA (Homo sapiens, UniProt P62937); assay: Rotamase inhibition, chymotrypsin-coupled cuvette assay (asterisked values); type: biochemical
Excerpt: (§1) A number of substrates for rotamase are known in the art or can be derived from those known. Typically, the substrate contacts a sample containing a protein with rotamase activity and the conversion of the substrate is detected after a period of time. The method for detecting conversion of the substrate will vary with the particular substrate chosen. One method has been termed the Ki test (See Harding, et al., Nature, 341:758-760 (1989). The cis-trans isomerization of an alanine-proline bond in a model substrate, N-succinyl-Ala-Ala-Pro-Phe-p-nitroanilide, is monitored spectrophotometrically in a chymotrypsin-coupled assay. The action of chymotrypsin releases p-nitroaniline from only the trans form of the substrate. The amount of p-nitroaniline can be monitored in a spectrophotometer, for example. Other methods of detecting the presence of p-nitroaniline can also be used. The inhibition of this reaction caused by different concentrations of inhibitor is determined and the data are analyzed as a change in first-order rate constant as a function of inhibitor concentration, which yields the Ki value.
(§2) The following were added to a plastic cuvette: […] of ice cold assay buffer (25 mM HEPES, pH 7.8, 100 mM NaCl), 10 μL of CyP A (2.5 μM in 10 mM Tris-Cl pH 7.5, 100 mM NaCl, 1 mM dithiothreitol), 25 μL of chymotrypsin (50 mg/ml in 1 mM HCl), and 10 μL of test compound, at various concentrations, in dimethyl sulfoxide. The reaction was initiated by the addition of 5 μL of substrate (succinyl-Ala-Phe-Pro-Phe-para-nitroanilide, 5 mg/mL in 470 mM LiCl in trifluoroethanol). The absorbance at 390 nm versus time was monitored for 90 seconds using a spectrophotometer and the rate constants were determined from the absorbance versus time data files.
(§3) The IC50 values that were obtained for representative compounds in the following Table I refer to the concentration that inhibits 50% of the rotamase activity in a sample. […] The Cyclophilin utilized was a recombinant rat CyPA-GST fusion protein: CypA was amplified from rat brain cDNA using standard PCR methods, primed with the following sequences: 5′ CCCCCCGGGAGTCAACCCCACCGTGTTCTTCGA 3′ and 5′ GGAGATCTAGAGTTGTCCACAGTCGGAGATGGT 3′. The resulting fragment (573 base pairs) was cloned into pCRII and amplified. The CyP sequence was cut out with Smal and EcoRl and cloned into the Smal/EcoRl sites in pGEX2TK (Pharmacia). This plasmid was transformed into BL21 E. coli cells for expression of the GST-CyPA fusion protein.

[2] = tested on: Sprague-Dawley rat lumbar spinal cord slices; assay: Neuroprotection assay in spinal cord slice preparations (THA-induced cell death); type: cell-based; details: THA 200 μM + compound 10 μM
Protocol: Neuroprotection Assay in Spinal Cord Slice Preparations: All cultures were derived from postnatal day 8 (P8) Sprague-Dawley rat lumbar spinal cord slices of 325 micron thickness, prepared using a commercially available Mcllwain tissue chopper. Each experiment consisted of two 6-well plates with 5 slices from 4 different animals per well. Media changes were performed every 3 to 4 days. Cultures were treated with THA [L(−)-threo-3-hydroxyaspartic acid; Tocris Cookson Inc., Ballwin, Mo.] at 200 μM+compound (10 μM) after one week in culture. The control was an untreated sample with 0.1% DMSO as vehicle. The THA control was a THA treated sample with 0.1% DMSO as vehicle. Two wells were used per condition. One media change with new THA and compounds was performed. […] Quantification of surviving neurons was performed on a Zeiss Axiovert microscope. Neuronal survival was determined by observing an intact neuronal cell body with processes located ventrally of the central canal in each hemisphere. […] Each hemisphere was counted individually. The statistics were performed with StatView™ software on a minimum of three different experiments per condition and significance was determined as compared to THA control. The percent of protection was determined from the average number of living neurons by the following equation: (drug treatment condition−THA control)/(Untreated control−THA control). […]

[3] = biological target: T1, recombinant rat CyPA-GST fusion protein (Rattus norvegicus, UniProt P10111); assay: Rotamase (prolyl peptidyl cis-trans isomerase) inhibition, chymotrypsin-coupled cuvette assay; type: biochemical
T1 construct: made in house; host or cells: E. coli BL21
Excerpt: as §1, §2, §3

T1 sequence (P10111 2-164): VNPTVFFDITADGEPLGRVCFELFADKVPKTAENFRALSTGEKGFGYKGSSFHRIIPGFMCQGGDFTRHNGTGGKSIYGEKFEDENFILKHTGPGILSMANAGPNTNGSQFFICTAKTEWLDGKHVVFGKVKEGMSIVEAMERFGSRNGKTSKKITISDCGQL
Chain of human recombinant CyPA (P62937 whole entry): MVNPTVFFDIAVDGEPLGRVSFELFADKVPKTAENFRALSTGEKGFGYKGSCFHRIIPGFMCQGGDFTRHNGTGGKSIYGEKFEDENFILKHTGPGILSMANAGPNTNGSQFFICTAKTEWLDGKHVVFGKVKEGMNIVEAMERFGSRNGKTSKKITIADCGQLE

O=C(Nc1cc(Cl)cc(Cl)c1)N[C@H]1CCCC[C@H]1NC(=O)Nc1cc(Cl)cc(Cl)c1 [Compound 15a]
protection of striatal tyrosine hydroxylase-immunoreactive fibres [1]: 72.4%
IC50 (human recombinant CyPA): 521 nM
protection from THA-induced cell death [2]: complete protection
SMI-32 immunoreactive neurons per ventral hemisphere ([2]; untreated control 26.4±4.2, THA control 15.97±2.04, mean±standard error): 26.5±2.7 cells/ventral hemisphere
IC50 [3]: 610 nM
